US9079974B2, “GH-RH analogs with potent agonistic effects” (The University of Miami, priority 2011, dated 2015)
Entries after “also recorded” stand apart in the source; their conditions may differ. Square brackets hold non-standard residues; d marks the D form. Peptide text beside a SMILES is read from it. * marks the point of attachment. Phe(F5) = N[C@@H](Cc1c(F)c(F)c(F)c(F)c1F)C(=O)O; Desaminotyrosyl = O=C(CCc1ccc(O)cc1)*; NMeY = CN[C@@H](Cc1ccc(O)cc1)C(=O)O; hArg = N=C(N)NCCCC[C@H](N)C(=O)O; Nle = CCCC[C@H](N)C(=O)O; Orn = NCCC[C@H](N)C(=O)O; Abu = CC[C@H](N)C(=O)O; GABA = NCCCC(=O)O

Legend:
[1] = target: T1, GHRH receptor (Homo sapiens, UniProt Q02643); assay: GHRH receptor binding, [His1,125I-Tyr10,Nle27]hGHRH(1-32)NH2 ligand competition, human pituitary membrane homogenates (Table 6); conditions: for IC50: [His1,125I-Tyr10,Nle27]hGHRH(1-32)NH2, human pituitary membranes
T1 construct: Normal human pituitaries were purchased from the National Hormone and Peptide Program; tissue National Hormone and Peptide Program (A. F. Parlow); host or cells: normal human pituitary, membrane fraction
T1 sequence (Q02643 23-423): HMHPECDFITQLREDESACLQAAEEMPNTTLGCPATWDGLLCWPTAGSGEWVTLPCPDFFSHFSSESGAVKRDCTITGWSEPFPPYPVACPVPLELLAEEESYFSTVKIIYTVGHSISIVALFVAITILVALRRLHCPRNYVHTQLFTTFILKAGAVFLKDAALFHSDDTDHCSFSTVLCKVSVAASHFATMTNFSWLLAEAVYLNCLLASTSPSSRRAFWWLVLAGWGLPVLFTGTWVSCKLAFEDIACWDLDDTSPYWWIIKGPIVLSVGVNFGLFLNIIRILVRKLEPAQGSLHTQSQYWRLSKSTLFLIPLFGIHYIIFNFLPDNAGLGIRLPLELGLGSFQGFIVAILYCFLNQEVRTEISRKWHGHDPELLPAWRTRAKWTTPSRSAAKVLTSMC
Method: (§1) Receptor binding assay Ligand competition assay with ^125I-labeled [His^1, Nle^27]hGH-RH(1-32)-NH2 was used to determine the binding affinities of the novel hGH-RH agonists to membrane receptors of rat anterior pituitary cells. The methods used have been described in detail (Halmos G, et al. Receptor 3: 87-97, 1993), here by incorporated by reference. Briefly, radioidonated [His^1, Nle^27]hGH-RH(1-32)-NH2 is prepared by the chloramines-T method. […] IC50 is the dose of the tested peptides causing 50% inhibition of specific binding to receptors.
(§2) Preparation of human pituitary membrane fraction and receptor binding of GHRH agonists were performed as previously described, by using a sensitive in vitro ligand competition assay based on binding of ^125I-labeled [His^1, Nle^27]hGHRH(1-32)NH2 to human pituitary membrane homogenates. Normal human pituitaries were purchased from the National Hormone and Peptide Program (A. F. Parlow, Los Angeles, County Harbor—UCLA Medical Center, Torrance, Calif.).

[2] = target: T1, GHRH receptor; assay: GHRH receptor binding, 125I-labeled JV-1-42 ligand competition, human pituitary membrane homogenates (Table 7); conditions: 125I-labeled JV-1-42, human pituitary membranes
Method: as §2, with “JV-1-42” for “[His^1, Nle^27]hGHRH(1-32)NH2”, “Harbor-UCLA” for “Harbor—UCLA”

[3] = target: T1, GHRH receptor; assay: GHRH receptor binding, 125I-labeled JV-1-42 ligand competition, human pituitary membrane homogenates (Table 5)
Method: as §1
as §2, with “JV-1-42” for “[His^1, Nle^27]hGHRH(1-32)NH2”, “Harbor-UCLA” for “Harbor—UCLA”, “Calif.). Briefly, in competitive binding analysis, ^125I-labeled JV-1-42 (˜0.2 nM) was displaced by GHRH agonists at 10^−6 to 10^−12 M.” for “Calif.).”
The final binding affinities were expressed as IC50 values and were calculated by using the LIGAND PC computerized curve-fitting program of Munson and Rodbard as modified by McPherson.

[4] = test system: GH release; assay: In vivo GH release after subcutaneous administration; conditions: rat, s.c.
Method: Blood samples are taken from the jugular vein; 5, 15 and 30 minutes or only 15 and 30 minutes after the injection. The blood samples are centrifuged, plasma is removed and the GH level is measured by ELISA. The results are summarized in terms of potency in Table 9.

[5] = test system: GH release; assay: In vivo GH release after intravenous administration; conditions: rat, i.v.
Method: The blood samples are centrifuged, plasma is removed and the GH level is measured by ELISA.

[6] = given subcutaneously twice a day; cited from earlier work
[7] = target: dipeptidylpeptidase IV (DPP-IV) (Homo sapiens, UniProt P27487); conditions: cited from earlier work
Chain of dipeptidylpeptidase IV (DPP-IV) (P27487 39-766 limits assumed, species assumed): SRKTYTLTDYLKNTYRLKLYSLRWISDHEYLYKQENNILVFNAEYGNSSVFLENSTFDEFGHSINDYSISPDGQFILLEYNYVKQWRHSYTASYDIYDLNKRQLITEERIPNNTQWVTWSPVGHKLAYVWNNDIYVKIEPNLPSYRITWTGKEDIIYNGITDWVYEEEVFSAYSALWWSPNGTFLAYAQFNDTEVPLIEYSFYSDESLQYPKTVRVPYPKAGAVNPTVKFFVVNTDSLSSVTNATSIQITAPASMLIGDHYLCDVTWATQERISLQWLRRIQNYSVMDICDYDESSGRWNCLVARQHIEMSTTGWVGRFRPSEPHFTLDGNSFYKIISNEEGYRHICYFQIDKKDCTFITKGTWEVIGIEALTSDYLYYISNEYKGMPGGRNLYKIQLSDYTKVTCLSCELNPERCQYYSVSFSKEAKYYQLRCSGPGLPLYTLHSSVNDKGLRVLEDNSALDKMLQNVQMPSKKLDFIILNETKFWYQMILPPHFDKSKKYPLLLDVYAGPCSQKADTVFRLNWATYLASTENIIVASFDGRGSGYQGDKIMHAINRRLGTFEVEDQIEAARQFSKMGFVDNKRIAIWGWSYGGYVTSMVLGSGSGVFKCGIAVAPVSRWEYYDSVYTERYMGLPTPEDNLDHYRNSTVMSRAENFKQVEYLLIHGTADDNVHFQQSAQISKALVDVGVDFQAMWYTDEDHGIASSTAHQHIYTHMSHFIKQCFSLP

CCCC[C@H](NC(=O)[C@@H](NC(=O)[C@H](CC(=O)O)NC(=O)[C@H](CCC(N)=O)NC(=O)[C@H](CC(C)C)NC(=O)[C@H](CC(C)C)NC(=O)[C@H](CCCN)NC(=O)[C@H](CCCNC(=N)N)NC(=O)[C@H](C)NC(=O)[C@H](CO)NC(=O)[C@H](CC(C)C)NC(=O)[C@H](CCC(N)=O)NC(=O)[C@H](CC)NC(=O)[C@H](CC(C)C)NC(=O)[C@@H](NC(=O)[C@H](CCCN)NC(=O)[C@H](CCCNC(=N)N)NC(=O)[C@H](Cc1ccc(O)cc1)NC(=O)[C@H](CO)NC(=O)[C@@H](NC(=O)[C@@H](NC(=O)[C@H](Cc1ccccc1)NC(=O)[C@@H](NC(=O)[C@H](C)NC(=O)[C@H](CC(=O)O)NC(=O)[C@@H](C)NC(=O)CCc1ccc(O)cc1)[C@@H](C)CC)[C@@H](C)O)[C@@H](C)O)C(C)C)[C@@H](C)CC)C(=O)N[C@@H](CC(=O)O)C(=O)N[C@@H](CCCNC(=N)N)C(=O)N[C@@H](CCCCNC(=N)N)C(N)=O [Peptide P-23254, [Dat^1, D-Ala^2, Thr^8, Orn^12, Abu^15, Orn^21, Nle^27, Asp^28, Har^30]hGH-RH(1-30)NH2] (Desaminotyrosyl-[dA]DAIFTTSYR[Orn]VL[Abu]QLSAR[Orn]LLQDI[Nle]DR[hArg]-NH2)
IC50 [1]: 0.07 nM

CCCC[C@H](NC(=O)[C@@H](NC(=O)[C@H](CC(=O)O)NC(=O)[C@H](CCC(N)=O)NC(=O)[C@H](CC(C)C)NC(=O)[C@H](CC(C)C)NC(=O)[C@H](CCCN)NC(=O)[C@H](CCCNC(=N)N)NC(=O)[C@H](C)NC(=O)[C@H](CO)NC(=O)[C@H](CC(C)C)NC(=O)[C@H](CCC(N)=O)NC(=O)[C@H](CC)NC(=O)[C@H](CC(C)C)NC(=O)[C@@H](NC(=O)[C@H](CCCN)NC(=O)[C@H](CCCNC(=N)N)NC(=O)[C@H](Cc1ccc(O)cc1)NC(=O)[C@H](CO)NC(=O)[C@H](C)NC(=O)[C@@H](NC(=O)[C@H](Cc1ccccc1)NC(=O)[C@@H](NC(=O)[C@H](C)NC(=O)[C@H](CC(=O)O)NC(=O)[C@@H](C)NC(=O)CCc1ccc(O)cc1)[C@@H](C)CC)[C@@H](C)O)C(C)C)[C@@H](C)CC)C(=O)N[C@@H](CC(=O)O)C(=O)N[C@@H](CCCNC(=N)N)C(=O)N[C@@H](CCCCNC(=N)N)C(N)=O [Peptide P-23256, [Dat^1, D-Ala^2, Ala^8, Orn^12, Abu^15, Orn^21, Nle^27, Asp^28, Har^30]hGH-RH(1-30)NH2] (Desaminotyrosyl-[dA]DAIFTASYR[Orn]VL[Abu]QLSAR[Orn]LLQDI[Nle]DR[hArg]-NH2)
IC50 [1]: 0.04 nM

CCCC[C@H](NC(=O)[C@@H](NC(=O)[C@H](CC(=O)O)NC(=O)[C@H](CCC(N)=O)NC(=O)[C@H](CC(C)C)NC(=O)[C@H](CC(C)C)NC(=O)[C@H](CCCN)NC(=O)[C@H](CCCNC(=N)N)NC(=O)[C@H](C)NC(=O)[C@H](CO)NC(=O)[C@H](CC(C)C)NC(=O)[C@H](CCC(N)=O)NC(=O)[C@H](CC)NC(=O)[C@H](CC(C)C)NC(=O)[C@@H](NC(=O)[C@H](CCCN)NC(=O)[C@H](CCCNC(=N)N)NC(=O)[C@H](Cc1ccc(O)cc1)NC(=O)[C@H](CO)NC(=O)[C@H](CC(N)=O)NC(=O)[C@@H](NC(=O)[C@H](Cc1c(F)c(F)c(F)c(F)c1F)NC(=O)[C@@H](NC(=O)[C@H](C)NC(=O)[C@H](CC(=O)O)NC(=O)[C@@H](C)NC(=O)CCc1ccc(O)cc1)[C@@H](C)CC)[C@@H](C)O)C(C)C)[C@@H](C)CC)C(=O)N[C@@H](CO)C(=O)N[C@@H](CCCNC(=N)N)C(=O)NCCCC(N)=O [Peptide P-25502, [Dat^1, D-Ala^2, Fpa5^6, Orn^12, Abu^15, Orn^21, Nle^27, Gab^30]hGH-RH(1-30)NH2] (Desaminotyrosyl-[dA]DAI[Phe(F5)]TNSYR[Orn]VL[Abu]QLSAR[Orn]LLQDI[Nle]SR[GABA]-NH2)
IC50 [2]: 0.33 nM | IC50 ([3]; 125I-labeled JV-1-42, human pituitary membranes): 0.07 nM | GH response after subcutaneous administration (in words) [4]: unusually high responses; also recorded: especially greater growth hormone levels than hGH-RH or JI-38 | GH response after intravenous administration (in words) [5]: most potent

CCCC[C@H](NC(=O)[C@@H](NC(=O)[C@H](CC(=O)O)NC(=O)[C@H](CCC(N)=O)NC(=O)[C@H](CC(C)C)NC(=O)[C@H](CC(C)C)NC(=O)[C@H](CCCN)NC(=O)[C@H](CCCNC(=N)N)NC(=O)[C@H](C)NC(=O)[C@H](CO)NC(=O)[C@H](CC(C)C)NC(=O)[C@H](CCC(N)=O)NC(=O)[C@H](CC)NC(=O)[C@H](CC(C)C)NC(=O)[C@@H](NC(=O)[C@H](CCCN)NC(=O)[C@H](CCCNC(=N)N)NC(=O)[C@H](Cc1ccc(O)cc1)NC(=O)[C@H](CO)NC(=O)[C@H](CCC(N)=O)NC(=O)[C@@H](NC(=O)[C@H](Cc1ccccc1)NC(=O)[C@@H](NC(=O)[C@H](C)NC(=O)[C@H](CC(=O)O)NC(=O)[C@@H](C)NC(=O)[C@H](Cc1ccc(O)cc1)NC)[C@@H](C)CC)[C@@H](C)O)C(C)C)[C@@H](C)CC)C(=O)N[C@@H](CC(=O)O)C(=O)N[C@@H](CCCNC(=N)N)C(=O)NC [Peptide P-27403, [N—Me-Tyr^1, D-Ala^2, Gln^8, Orn^12, Abu^15, Orn^21, Nle^27, Asp^28]hGH-RH(1-29)NH—CH3] (H-[NMeY][dA]DAIFTQSYR[Orn]VL[Abu]QLSAR[Orn]LLQDI[Nle]DR-NHMe)
IC50 [2]: 0.16 nM | GH response after subcutaneous administration (in words) [4]: unusually high responses; also recorded: especially greater growth hormone levels than hGH-RH or JI-38 | GH response after intravenous administration (in words) [5]: most potent

hGH-RH(1-29)NH2 [GHRH (1-29), reference compound]
share of GH-deficient children in whom linear growth was promoted [6]: approximately 50% | Relative affinity (Binding potency) vs GHRH ([1]; relative to GHRH(1-29) = 1): 1 | Relative affinity (Binding potency) vs GHRH ([3]; relative to GHRH(1-29) = 1): 1

hGH-RH: native human GH-RH, 44 amino acids with an amidated carboxyl terminus
degradation in plasma via DPP-IV cleavage between residues 2 and 3 [7]: rapidly degraded
